Assay results as given in paper PMC10998878, “Inhibition of acyl-CoA binding protein (ACBP) by means of a GABAARγ2-derived peptide” (Cell Death & Disease, 2024).
“Also recorded” adds a separate entry of the source.

What was measured:
[1] = target: T1, recombinant murine ACBP/DBI (Mus musculus, UniProt P31786); assay: Surface plasmon resonance (Biacore 2000) real time interaction analysis; format: binding; details: for interaction with recombinant ACBP/DBI, in words: surface plasmon resonance, HBS-EP pH 7.4, 25 °C, 10 µM and 100 µM peptide
T1 construct: biotin (biotinylated); purchased Institute of Psychiatry and Neuroscience of Paris, France
T1 sequence (P31786 1-87): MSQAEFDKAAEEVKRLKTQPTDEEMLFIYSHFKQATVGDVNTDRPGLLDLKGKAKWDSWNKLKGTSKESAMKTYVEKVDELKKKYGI
Procedure: Kinetics of interaction of recombinant murine ACBP/DBI (Institute of Psychiatry and Neuroscience of Paris, France) with GABAARγ2 -derived eicosapeptide or its mutated derivative (synthesized by Biosynth ltd) was analyzed by surface plasmon resonance-based biosensor system – Biacore 2000 (Cytiva Life Sciences, Biacore, Uppsala, Sweden). SA sensor chip (Cytiva Life Sciences, Biacore) was activated by three consequent injections of 1 M NaCl, 0.05 M NaOH solution. After washing the sensor chip surface, biotinylated ACBP/DBI was immobilized on it. ACBP was diluted in HBS-EP buffer (10 mM HEPES […], 150 mM NaCl, 3 mM EDTA, and 0.005% Tween-20) at final concentration of 10 µg/mL and injected for 5 min contact time. The achieved immobilization density of ACBP was 1600 resonance units.
All analyses were performed in HBS-EP buffer (0.01 M HEPES pH 7.4, 0.15 M NaCl, 3 mM EDTA, 0.005% v/v Surfactant P20; 0.22 µm filtered and degassed). The system was run at flow rate of 30 μL/min. The temperature on chip surface was set to 25 °C. GABAARγ2-derived eicosapeptide or its mutated derivative (both stocked in DMSO at 1 mg/mL) were diluted in HBS-EP to 10 µM and 100 µM. The peptides were injected over immobilized ACBP/DBI and a control surface (streptavidin alone). The association and dissociation phases of the interaction were followed for 4 and 5 min, respectively. The interaction of peptides with ACBP/DBI was assessed by monitoring the dissociation from the immobilized protein. For visualization of the binding response Graph Pad Prism software was used.

[2] = tested on: native ACBP/DBI protein (mouse liver extracts); assay: Pull down / immunoprecipitation of native ACBP/DBI from liver extracts; format: binding; details: mouse liver protein extract (500 μg), peptide-coated beads, overnight 4 °C, immunoblot for ACBP
Procedure: The physical interaction between the native ACBP and GABAARγ2 peptides was examined by standard immunoprecipitation (IP) and immunoblotting protocols. In detail, liver protein extracts (500 μg) were immunoprecipitated on protein A/G-Sepharose beads (Merck Millipore, Burlington, MA, USA, #GE17-0618-01) coated with (1× 2× 4×) either GABAARγ2 wild type (WT) or mutated (F77I) eicosapeptide (Biosynth ltd) or its negative control (PBS). Each IP reaction was incubated overnight (4 °C) in a rotation chamber followed by three consecutive rounds of PBS washing the next day. Each washing round included a PBS resuspension of the pellet and a re-centrifugation (12,000 × g, 4 °C). Finally, beads were resuspended in 20 μL of NUPAGE 4× buffer (Life Technologies, CA, USA, #NP0008), heated at 100 °C (10 min), followed by standard immunoblotting for the ACBP protein (Abcam #ab231910).
Fig. 5 Biophysical and biochemical detection of a direct interaction between ACBP/DBI and the GABAARγ2-derived eicosapeptide. A Schematic representation of the GABAAR and the GABAARγ2-derived eicosapeptides. B Surface plasmon resonance kinetics of ACBP-GABAARγ2-derived eicosapeptide (WT and F77I) interactions. Representative ACBP immunoblot (C) from control- or GABAARγ2-immunoprecipitated samples. Anti-GABAARγ2 immunoprecipitation (IP) assay was employed in order to validate the GABAARγ2 WT peptide interaction with native ACBP (in murine hepatic protein extracts), and quantification (D). […] For statistical analysis p value (indicating statistical comparisons with the control condition) was calculated by Mann–Whitney U-test. E Anti-GABAARγ2 IP assay to address the physical interaction between GABAARγ2 peptides and murine hepatic ACBP protein. Interaction was validated using an increasing gradient of biotinylated WT/F77I peptides that were bound on the surface of streptavidin beads as part of the IP assay. […]

C57BL/6 mice = assay: Food intake after intravenous injection; format: in vivo, mouse; details: i.v., RecACBP/DBI 0.5 mg/kg + peptide 5× molar excess (pre-incubated 16 h, 4 °C), cumulative food intake 30 min
Procedure: Prior to experimentation, mice were subjected to 24 h starvation followed by individual housing and acclimatization in individual cages (2 h). Subsequently, mice were intravenously (i.v.) injected with recombinant ACBP/DBI protein (RecACBP/DBI) (total volume of 200 μL, 0.5 mg/kg body weight), either alone or in combination with GABAARγ2 peptides (5× molar excess). Cumulative food intake was then analyzed as previously described. Prior to i.v. injections, the RecACBP mixes were pre-incubated (16 h, 4 °C) with GABAARγ2 peptides.

[3] = tested on: liver autophagy, C57BL/6 mice; assay: Liver autophagy activation in vivo (LC3 lipidation); design: species or system mouse; details: C57BL/6 male mice, peptide 5 mg/kg i.v. 4 h and 30 min before sacrifice, with or without leupeptin 30 mg/kg i.p., LC3 immunoblot, n = 5
Procedure: Ten-week-old C57BL/6 male mice were injected with GABAARγ2 peptides (5 mg/kg, i.v., dissolved in PBS) 4 h and 30 min before sacrifice. For inhibition of the autophagy flux, leupeptin (Leu, 30 mg/kg B.W., dissolved in PBS) was injected 2 h before sacrifice via an intraperitoneal (i.p.) injection. Control animals were i.v. injected with the vehicle (DMSO, 0.01%) and i.p. injected with PBS. All animals were sacrificed, and livers were snap-frozen in liquid nitrogen and stored at −80 °C.
Protein lysates were prepared from liver, epididymal white adipose tissue (eWAT), brown adipose tissue (BAT), muscle, heart or Hep55.1c cells. Immunoblot analysis was performed for GABAARγ2 (Abcam #ab87328), mouse ACBP/DBI (Abcam, #ab231910), Human ACBP (Santa-Cruz #sc-376853), MAP1LC3B (#2775, Cell Signaling Technologies), and β-actin (Abcam, #ab49900), as previously described..

[4] = listed as GABAARγ2-derived eicosapeptide

## INMEYTIDIFFAQTWYDRRL [GABAARγ2-EP-WT]
[1]; biotinylated recombinant ACBP/DBI on SA chip (1600 RU), peptide 10 µM and 100 µM in HBS-EP, pH 7.4, 25 °C, 30 μL/min, association 4 min, WT vs F77I
  association with immobilized ACBP/DBI (SPR): associated more rapidly
[1]; biotinylated recombinant ACBP/DBI on SA chip (1600 RU), peptide 10 µM and 100 µM in HBS-EP, pH 7.4, 25 °C, 30 μL/min, dissociation 5 min, WT vs F77I
  dissociation from immobilized ACBP/DBI (SPR): dissociated more slowly from ACBP/DBI than GABAARγ2-EP-F77I
[1]
  interaction with recombinant ACBP/DBI, in words: efficiently interacts with native and recombinant ACBP/DBI; also recorded: able to interact with ACBP/DBI
[1]; [4]
  interaction with recombinant ACBP/DBI, in words: validated the interaction
[2]
  pull down of endogenous/native ACBP/DBI, in words: efficiently interacts with native and recombinant ACBP/DBI; also recorded: able to interact with ACBP/DBI
[2]; [4]
  pull down of endogenous/native ACBP/DBI, in words: validated the interaction
C57BL/6 mice; n = 4 to 9
  effect on RecACBP/DBI-induced hyperphagy: abolished; also recorded: efficiently blocked
C57BL/6 mice; n = 4 to 9, listed as GABAARγ2-derived eicosapeptide
  effect on RecACBP/DBI-induced hyperphagy: blocked appetite stimulation by recombinant ACBP/DBI in vivo
[3]
  activation of autophagy in the liver: activation of autophagy in the liver was induced
[3]; [4]
  activation of autophagy in the liver: induced autophagy in the liver
